Reference: patent publication US20070264680A1, “Method and Test-Kit for the Detection and Quantification of Organisms” (PROTEUS S.A., priority 2004, published 2007)

Key:
[1] = test system: benchmark bacterial strain having an esterase activity; experiment: Microbial decontamination efficiency of cleaning substances on contaminated plastic surfaces (esterase activity of swab); format: cell-based; conditions: remaining esterase activity after cleaning the plastic surface with an impregnated wipe; optical density at 414 nm; not cleaned: 3.474
Method: For this purpose, a benchmark bacterial strain having an esterase activity (isolated by traditional microbiological methods from samples collected from human foreheads) has been used to artificially contaminated surfaces. This strain has been prepared by an overnight incubation at 37° C. in LB medium. 200 μL of this cell preparation, corresponding to 6.107 cfu have been spread on five plastic surfaces and allowed to dry completely.
Samples have then been collected onto the different plastic surfaces using swabs beforehand impregnated with PBS containing 0.1% w/v of Triton X100. 16 μL of the transformable substrate (2-hydroxy-4-p-nitrophenoxy-butyl hexanoate 20 mM in DMSO) have been mixed with 184 μL of aqueous PBS buffer 0.1M pH7.3. The swab has been plunged in this mix and incubated for 1 h at 37° C. The swab has then been removed from the reaction mixture and 100 μL have been transferred to another vial. 4 μL of bovine serum albumin 50 mg/mL in water, 40 μL NaIO4 100 mM in water and 40 μL Na2CO3 200 mM in water have been added. The reaction mixture has been incubated for 10 min at room temperature and centrifuged for 15 min at 16000 g. The activity has then been quantified by measuring optical density at 414 nm.

[2] = test system: Corynebacterium xerosis (DSM 20743); conditions: 0.3% in CSL, 30° C., reduction from 10^7, 24 h
Method: (§1) An EuAB test for antimicrobial activity was performed with Corynebacterium xerosis (DSM 20743), Staphylococcus epidermidis (DSM 3269) and Candida albicans (ATCC 10231). As culture medium CSL (Casein peptone-soybean meal peptone solution), CSA (Casein peptone-soybean meal pepton agar) and Sabouraud-glucose broth/agar was used.
(§2) As dilution liquid NaCl-peptone buffer solution with inactivator (3% Tween 80, 0.3% lecithin, 0.1% histidine and 0.5% Na thiosulfate) was used. Polyglyceryl-3 caprylate was tested in 0.3% (in CSL) concentration. The test solution was prepared one day before investigation. For this, 100 ml of CSL was heated to 60° C. in a water bath. 0.3 g was weighed into 100 ml of CSL at 60° C. The preparations were shaken vigorously by hand and left overnight at 30° C. in an incubator. Corynebacterium xerosis was cultivated over 3 to 4 days. Other microbes were isolated in broth or by elutriation. For each test microbe, 20 ml of each test solution were introduced into sterile 50 ml brown glass bottles with glass beads and contaminated with 0.2 ml of microbe suspension. As controls, 20 ml of CSL were carried over per test microbe without sample.
(§3) The contaminated samples were shaken for 3 min on a shaking machine and kept in an incubator at 30° C. until removed. At the removal points (1, 2, 3, 24 and 48 hours) 1 ml was taken from each preparation and transferred in each case to 9 ml of NaCl-peptone buffer solution with inactivator and the colony number was determined. The 0 hour values given were the colony numbers of the test microbe suspension used taking into consideration the 10^−2 dilution upon sample contamination.

[3] = test system: Candida albicans (ATCC 10231); conditions: 0.3% in CSL, 30° C., reduction from 10^7, 24 h
Method: as §1, §2, §3

[4] = test system: Staphylococcus epidermidis (DSM 3269); conditions: 0.3% in CSL, 30° C., reduction from 10^7, 24 h
Method: as §1, §2, §3

| Compound | activity [1] | bacteria count (colony number) after 24 h [2] | bacteria count (colony number) after 24 h [3] | bacteria count (colony number) after 24 h [4] |
| --- | --- | --- | --- | --- |
| CCO [70% ethanol, ethanol] | 0.195 |  |  |  |
| O [water] | 0.100 |  |  |  |
| polyglyceryl-3 caprylate |  | less than 270 | less than 270 | less than 270 |
